Assay results reported in patent publication US20240059694A1, “COMPOUND CONTAINING 1,3-BENZODIOXOL STRUCTURE AND PREPARATION METHOD AND USE THEREOF” (priority 2021, published 2024).

How the values were obtained:
[1] = target: BTK (Homo sapiens (Human), UniProt Q06187); assay: BTK kinase inhibitory activity experiment (Caliper EZ reader conversion rate); format: biochemical; conditions: for IC50: in vitro kinase assay, 20 min incubation, class key in μM; for inhibitory activity on BTK (in words): summary of Table 1
Description: (§1) Experimental method: The 384-well plate was divided into compound wells (starting at 10 μM, diluted three times to produce 10 concentrations), positive control wells and negative control wells; kinase solution was added to compound wells and positive control wells, and 1×kinase buffer was added to negative control wells; the solution is next centrifuged for 30 seconds and incubated at room temperature for 10 min. Add 15 μL of the mixed solution of ATP and substrate, shake and mix well after centrifugation and incubate at room temperature (30 min for JAK3, 20 min for BTK). Add stop detection solution to stop the reaction, and read the conversion rate with Caliper EZ reader, Data analysis: The formula is as follows: […]
(§2) where Conversion %_sample is the conversion rate reading of the sample Conversion %_min is the average value of the negative control wells representing the conversion rate reading of the wells without enzyme addition; and Conversion %_max is the average value of the positive control wells representing the conversion rate reading of the wells without adding the compound. Fit the dose-response curve: Taking the log value of the concentration as the X-axis, and the percentage inhibition rate as the Y-axis, the dose-response curve was fitted using the log (inhibitor) vs. response-Variable slope of the software GraphPad Prism 5, so as to obtain the IC50 value of each compound on the enzyme activity.

[2] = target: JAK3 (Homo sapiens (Human), UniProt P52333); assay: JAK3 kinase inhibitory activity experiment (Caliper EZ reader conversion rate); format: biochemical; conditions: for IC50: in vitro kinase assay, 30 min incubation, class key in μM; for inhibitory activity on JAK3 (in words): summary of Table 1
Description: as §1, §2

[3] = tested on: BaF3-TEL-JAK3 cells; assay: Proliferation inhibition of BaF3-TEL-JAK3 cells (Cell Titer-Glo, 72 h); format: cell-based; conditions: 72 h drug action, class key in μM
Description: (§3) Experimental procedure: A certain number of cells in the logarithmic growth phase were inoculated in a 96-well plate and cultured at 37° C. before adding drugs. After 72 h of drug action, after the 96-well cell plate was equilibrated to room temperature, 40 μL of Cell Titer-Glo® reagent was added to each well; each plate was then shaken for 2 min and allowed to stand for 10 min, the chemiluminescent signal was detected with an MD SpectraMax Paradigm microplate reader. Data analysis: The formula is as follows: […]
(§4) Max signal: DMSO signal; Min signal: medium signal, IC50 was calculated using GraphPad Prism 5.

[4] = tested on: Daudi cells; assay: Proliferation inhibition of Daudi cells (Cell Titer-Glo, 72 h); format: cell-based; conditions: 72 h drug action, class key in μM
Description: as §3, §4

Sequence of JAK3 (P52333 whole entry): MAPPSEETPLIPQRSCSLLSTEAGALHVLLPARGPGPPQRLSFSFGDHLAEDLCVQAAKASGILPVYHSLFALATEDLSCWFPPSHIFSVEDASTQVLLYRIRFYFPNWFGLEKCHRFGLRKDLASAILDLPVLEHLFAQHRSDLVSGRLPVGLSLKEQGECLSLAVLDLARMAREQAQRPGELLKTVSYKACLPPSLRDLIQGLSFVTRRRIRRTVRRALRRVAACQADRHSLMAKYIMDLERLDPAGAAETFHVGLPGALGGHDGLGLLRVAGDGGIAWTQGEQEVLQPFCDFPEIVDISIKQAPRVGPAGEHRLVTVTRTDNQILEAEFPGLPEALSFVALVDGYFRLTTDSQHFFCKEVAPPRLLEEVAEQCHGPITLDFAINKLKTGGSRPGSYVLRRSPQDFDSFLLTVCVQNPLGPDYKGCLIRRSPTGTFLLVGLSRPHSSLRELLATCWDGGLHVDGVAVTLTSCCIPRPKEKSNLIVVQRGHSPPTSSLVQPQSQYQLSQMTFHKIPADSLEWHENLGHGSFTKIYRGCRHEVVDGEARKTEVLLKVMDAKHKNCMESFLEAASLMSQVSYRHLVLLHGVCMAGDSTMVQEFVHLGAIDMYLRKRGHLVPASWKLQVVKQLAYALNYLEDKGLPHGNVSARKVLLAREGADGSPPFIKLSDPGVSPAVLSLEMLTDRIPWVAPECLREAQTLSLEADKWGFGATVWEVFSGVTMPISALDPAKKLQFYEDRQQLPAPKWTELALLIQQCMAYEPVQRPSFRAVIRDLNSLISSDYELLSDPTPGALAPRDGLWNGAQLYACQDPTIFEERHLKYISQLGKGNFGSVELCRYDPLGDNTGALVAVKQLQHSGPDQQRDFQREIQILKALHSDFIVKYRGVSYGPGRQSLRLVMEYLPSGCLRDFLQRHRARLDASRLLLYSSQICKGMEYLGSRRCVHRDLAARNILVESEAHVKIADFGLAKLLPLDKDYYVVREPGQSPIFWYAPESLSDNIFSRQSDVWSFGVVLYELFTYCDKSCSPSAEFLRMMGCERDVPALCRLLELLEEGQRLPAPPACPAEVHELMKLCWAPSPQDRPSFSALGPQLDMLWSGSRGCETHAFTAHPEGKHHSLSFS
Sequence of BTK (Q06187 whole entry): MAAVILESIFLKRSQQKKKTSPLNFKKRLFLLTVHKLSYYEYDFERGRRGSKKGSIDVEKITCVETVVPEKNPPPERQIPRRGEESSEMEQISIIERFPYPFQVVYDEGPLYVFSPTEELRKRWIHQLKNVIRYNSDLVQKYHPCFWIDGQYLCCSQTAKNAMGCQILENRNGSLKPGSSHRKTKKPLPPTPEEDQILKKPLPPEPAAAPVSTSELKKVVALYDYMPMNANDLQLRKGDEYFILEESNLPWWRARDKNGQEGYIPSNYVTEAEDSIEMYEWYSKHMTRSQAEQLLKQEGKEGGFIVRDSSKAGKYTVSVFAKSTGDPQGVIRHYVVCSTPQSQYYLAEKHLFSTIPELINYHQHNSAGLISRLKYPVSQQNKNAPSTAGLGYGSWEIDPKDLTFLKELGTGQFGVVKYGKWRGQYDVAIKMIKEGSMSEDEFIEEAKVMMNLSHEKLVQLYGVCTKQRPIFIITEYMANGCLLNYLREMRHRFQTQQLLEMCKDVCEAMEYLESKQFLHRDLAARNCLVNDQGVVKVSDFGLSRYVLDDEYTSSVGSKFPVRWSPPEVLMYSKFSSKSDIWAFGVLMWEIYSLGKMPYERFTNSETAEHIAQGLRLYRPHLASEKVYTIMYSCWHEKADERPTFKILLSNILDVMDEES

| Compound | IC50 [1] | IC50 [2] | IC50 [3] | IC50 [4] | inhibitory activity on BTK (in words) [1] | inhibitory activity on JAK3 (in words) [2] |
| --- | --- | --- | --- | --- | --- | --- |
| C=CC(=O)N1CCC[C@@H](n2nc(-c3ccc(NC(=O)c4ccc(-c5ccccc5)cc4)c4c3OCO4)c3c(N)ncnc32)C1 [I-24, (R)-N-(7-(1-(1-acryloylpiperidin-3-yl)-4-amino-1H-pyrazolo[3,4-d]pyrimidin-3-)benzo[d][1,3]dioxoheterocyclopenten-4)-[1,1′-Biphenyl]-4-carboxamide] | 0.001 to 0.05 µM | 0.05 to 0.5 µM | 0.01 to 0.5 µM | 0.01 to 0.5 µM | – | – |
| C=CC(=O)N1CCC[C@@H](n2nc(-c3ccc(NC(=O)c4cccc(Cl)c4)c4c3OCO4)c3c(N)ncnc32)C1 [I-6, (R)-N-(7-(1-(1-acryloylpiperidin-3)-4-amino-1H-pyrazolo[3,4-d]pyrimidin-3-)benzo[d][1,3]dioxoheterocyclopenten-4)-3-chlorobenzamide] | 0.001 to 0.05 µM | 0.001 to 0.05 µM | 0.5 to 1 µM | 0.5 to 1 µM | excellent inhibitory activity | excellent inhibitory activity |
| C=CC(=O)N1CCC[C@@H](n2nc(-c3ccc(NC(=O)c4ccc[nH]4)c4c3OCO4)c3c(N)ncnc32)C1 [I-3, (R)-N-(7-(1-(1-acryloylpiperidin-3-yl)-4-amino-1H-pyrazolo[3,4d]pyrimidin-3-)benzo[d][1,3]dioxoheterocyclopenten-4)-1H-pyrrole-2-formamide] | 0.001 to 0.05 µM | 0.05 to 0.5 µM | 0.5 to 1 µM | 0.5 to 1 µM | – | – |
| C=CC(=O)N1CCC[C@@H](n2nc(-c3ccc(NC(=O)c4sc5ccccc5c4Cl)c4c3OCO4)c3c(N)ncnc32)C1 [I-16, (R)-N-(7-(1-(1-acryloylpiperidin-3)-4-amino-1H-pyrazolo[3,4-d]pyrimidin-3-yl)benzo[d][1,3]dioxoheterocyclopenten-4-)-3-chlorobenzo[b]thiophene-2-formamide] | 0.001 to 0.05 µM | 0.001 to 0.05 µM | 0.01 to 0.5 µM | 0.01 to 0.5 µM | – | – |
| C=CC(=O)N1CCC[C@@H](n2nc(-c3ccc(NC(=O)c4ccc(Cl)cc4)c4c3OCO4)c3c(N)ncnc32)C1 [I-7, (R)-N-(7-(1-(1-acryloylpiperidin-3)-4-amino-1H-pyrazolo[3,4d]pyrimidin-3-)benzo[d][1,3]dioxoheterocyclopenten-4)-4-chlorobenzamide] | 0.001 to 0.05 µM | 0.001 to 0.05 µM | 0.5 to 1 µM | 0.5 to 1 µM | excellent inhibitory activity | excellent inhibitory activity |

More lines, now with the values ahead:

| IC50 [1] | IC50 [2] | IC50 [3] | IC50 [4] | inhibitory activity on BTK (in words) [1] | inhibitory activity on JAK3 (in words) [2] | Compound |
| --- | --- | --- | --- | --- | --- | --- |
| 0.001 to 0.05 µM | 0.001 to 0.05 µM | 0.5 to 1 µM | 0.5 to 1 µM | – | – | C=CC(=O)N1CCC[C@@H](n2cc(-c3ccc(NC(=O)c4cccc5ccccc45)c4c3OCO4)c3c(N)ncnc32)C1 [I-21, (R)-N-(7-(7-(1-acryloylpiperidin-3-yl)-4-amino-7H-pyrrolo[2,3-d]pyrimidin-5-yl)benzo[d][1,3]dioxoheterocyclopenten-4-)-1-naphthalenecarboxamide] |
| 0.001 to 0.05 µM | 0.001 to 0.05 µM | 0.01 to 0.5 µM | 0.5 to 1 µM | – | – | C=CC(=O)N1CCC[C@@H](n2nc(-c3ccc(NC(=O)c4ccc(N(CC)CC)cc4)c4c3OCO4)c3c(N)ncnc32)C1 [I-15, (R)-N-(7-(1-(1-acryloylpiperidin-3)-4-amino-1H-pyrazolo[3,4-d]pyrimidin-3-)benzo[d][1,3]dioxoheterocyclopenten-4)-4-(diethylamino)benzamide] |
| 0.001 to 0.05 µM | 0.001 to 0.05 µM | 0.01 to 0.5 µM | 0.5 to 1 µM | – | – | C=CC(=O)N1CCC[C@@H](n2nc(-c3ccc(NC(=O)c4ccc(N(C)C)cc4)c4c3OCO4)c3c(N)ncnc32)C1 [I-13, (R)-N-(7-(1-(1-acryloylpiperidin-3)-4-amino-1H-pyrazolo[3,4-d]pyrimidin-3-)benzo[d][1,3]dioxoheterocyclopenten-4)-4-(dimethylamino)benzamide] |
| 0.001 to 0.05 µM | 0.05 to 0.5 µM | 0.5 to 1 µM | 0.5 to 1 µM | – | – | C=CC(=O)N1CCC[C@@H](n2nc(-c3ccc(NC(=O)c4ccccc4)c4c3OCO4)c3c(N)ncnc32)C1 [I-1, (R)-N-(7-(1-(1-acryloylpiperidin-3-yl)-4-amino-1H-pyrazolo[3,4-d]pyrimidin-3-)benzo[d][1,3]dioxoheterocyclopenten-4-)benzamide] |
| 0.001 to 0.05 µM | 0.001 to 0.05 µM | 0.01 to 0.5 µM | 0.01 to 0.5 µM | excellent inhibitory activity | excellent inhibitory activity | C=CC(=O)N1CCC[C@@H](n2nc(-c3ccc(NC(=O)c4ccc(C(C)(C)C)cc4)c4c3OCO4)c3c(N)ncnc32)C1 [I-11, (R)-N-(7-(1-(1-acryloylpiperidin-3)-4-amino-1H-pyrazolo[3,4-d]pyrimidin-3-)benzo[d][1,3]dioxoheterocyclopenten-4)-4-tert-butylbenzamide] |
